Reference: ChEMBL document CHEMBL4706551, “Rational design of new multitarget histamine H receptor ligands as potential candidates for treatment of Alzheimer's disease” (Eur J Med Chem, 2020)
The source made the active and inactive calls. No cut-off for these calls is given here.

Tests used:
[1] = target: T1, Amine oxidase [flavin-containing] B (Homo sapiens, UniProt P27338); assay: biochemical; type: cell-based, BTI
T1 sequence (P27338 whole entry): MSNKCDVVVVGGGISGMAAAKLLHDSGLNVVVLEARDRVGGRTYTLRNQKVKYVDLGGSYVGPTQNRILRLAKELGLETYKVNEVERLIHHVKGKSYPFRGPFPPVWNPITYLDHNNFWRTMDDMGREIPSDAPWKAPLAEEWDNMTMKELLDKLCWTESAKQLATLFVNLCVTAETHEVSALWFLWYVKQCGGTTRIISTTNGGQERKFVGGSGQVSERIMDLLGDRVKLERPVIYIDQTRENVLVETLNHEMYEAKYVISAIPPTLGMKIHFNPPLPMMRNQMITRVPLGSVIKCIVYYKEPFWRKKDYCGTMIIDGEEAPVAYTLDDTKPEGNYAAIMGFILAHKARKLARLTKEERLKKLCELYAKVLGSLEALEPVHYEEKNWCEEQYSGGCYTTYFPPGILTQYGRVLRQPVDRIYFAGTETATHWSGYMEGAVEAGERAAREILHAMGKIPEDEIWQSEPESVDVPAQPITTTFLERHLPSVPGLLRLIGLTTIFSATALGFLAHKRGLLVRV
Description: Inhibition of recombinant human MAO-B expressed in baculovirus infected BTI cells using p-tyramine as substrate by fluorometric assay

Cholinesterase [2] = target: Cholinesterase (Equus caballus, UniProt P81908)
Cholinesterase (Equus caballus, UniProt P81908), sequence (P81908 whole entry): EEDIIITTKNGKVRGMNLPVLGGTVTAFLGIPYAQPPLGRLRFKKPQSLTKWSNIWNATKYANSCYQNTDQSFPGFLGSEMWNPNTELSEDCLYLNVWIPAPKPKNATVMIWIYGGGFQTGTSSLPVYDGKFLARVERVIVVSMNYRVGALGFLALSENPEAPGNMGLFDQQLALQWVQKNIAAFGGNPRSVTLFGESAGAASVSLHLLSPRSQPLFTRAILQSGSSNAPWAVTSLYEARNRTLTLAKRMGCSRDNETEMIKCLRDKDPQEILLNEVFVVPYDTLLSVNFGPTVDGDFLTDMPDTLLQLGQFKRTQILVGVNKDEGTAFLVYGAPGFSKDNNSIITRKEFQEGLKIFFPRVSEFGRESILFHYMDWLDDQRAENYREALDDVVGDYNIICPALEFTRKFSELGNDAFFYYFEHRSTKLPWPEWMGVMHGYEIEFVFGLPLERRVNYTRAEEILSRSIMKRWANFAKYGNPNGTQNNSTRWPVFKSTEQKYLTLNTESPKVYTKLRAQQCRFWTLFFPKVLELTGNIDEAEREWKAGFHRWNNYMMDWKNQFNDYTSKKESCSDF
Description: Inhibition of equine serum BChE using BTCI as substrate incubated for 5 mins followed by substrate addition and measured after 5 mins by spectrophotometric based Ellman's method

Acetylcholinesterase [3] = target: T2, Acetylcholinesterase (Electrophorus electricus, UniProt O42275)
T2 sequence (O42275 whole entry): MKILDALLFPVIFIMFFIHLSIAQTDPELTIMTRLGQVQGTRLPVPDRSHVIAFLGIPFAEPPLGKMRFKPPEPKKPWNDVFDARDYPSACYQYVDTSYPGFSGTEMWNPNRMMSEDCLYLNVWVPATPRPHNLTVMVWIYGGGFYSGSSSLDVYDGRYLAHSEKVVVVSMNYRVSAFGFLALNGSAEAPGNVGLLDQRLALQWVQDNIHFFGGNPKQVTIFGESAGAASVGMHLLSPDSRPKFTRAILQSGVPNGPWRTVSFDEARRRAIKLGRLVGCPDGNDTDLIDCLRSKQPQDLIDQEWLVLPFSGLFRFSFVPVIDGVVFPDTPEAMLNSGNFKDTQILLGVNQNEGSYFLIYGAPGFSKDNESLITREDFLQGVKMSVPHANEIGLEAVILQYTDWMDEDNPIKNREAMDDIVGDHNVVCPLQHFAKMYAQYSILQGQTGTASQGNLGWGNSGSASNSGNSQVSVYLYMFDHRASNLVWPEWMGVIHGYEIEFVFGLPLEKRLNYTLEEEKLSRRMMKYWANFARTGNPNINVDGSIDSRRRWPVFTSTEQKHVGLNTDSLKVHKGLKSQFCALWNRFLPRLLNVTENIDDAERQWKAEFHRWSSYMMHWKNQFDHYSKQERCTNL
Description: Inhibition of Electric eel AChE using ATCI as substrate incubated for 5 mins followed by substrate addition and measured after 5 mins by spectrophotometric based Ellman's method

MAO-A [4] = target: T3, MAO-A (Homo sapiens, UniProt P21397); assay: Inhibition of recombinant human MAO-A expressed in baculovirus infected BTI cells at 10 uM using p-tyramine as substrate by fluorometric assay relative to control; details: probe p-tyramine
T3 sequence (P21397 whole entry): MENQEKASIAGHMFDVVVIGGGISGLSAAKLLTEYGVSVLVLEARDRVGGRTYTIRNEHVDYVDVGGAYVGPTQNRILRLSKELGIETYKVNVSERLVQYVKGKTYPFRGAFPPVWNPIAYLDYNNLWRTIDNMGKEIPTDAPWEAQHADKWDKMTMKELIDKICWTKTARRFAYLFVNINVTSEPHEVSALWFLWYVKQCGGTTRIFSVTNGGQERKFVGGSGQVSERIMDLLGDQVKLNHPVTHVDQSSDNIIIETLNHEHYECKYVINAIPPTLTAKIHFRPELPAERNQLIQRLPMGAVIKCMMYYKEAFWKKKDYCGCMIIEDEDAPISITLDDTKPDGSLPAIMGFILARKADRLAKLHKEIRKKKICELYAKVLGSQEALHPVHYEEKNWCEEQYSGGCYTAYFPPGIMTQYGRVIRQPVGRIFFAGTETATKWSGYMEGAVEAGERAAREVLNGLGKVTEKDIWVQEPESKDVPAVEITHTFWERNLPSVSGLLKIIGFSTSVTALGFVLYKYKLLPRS

Histamine H3 receptor = Histamine H3 receptor (Homo sapiens, UniProt Q9Y5N1); assay: biochemical
Histamine H3 receptor, sequence (Q9Y5N1 whole entry): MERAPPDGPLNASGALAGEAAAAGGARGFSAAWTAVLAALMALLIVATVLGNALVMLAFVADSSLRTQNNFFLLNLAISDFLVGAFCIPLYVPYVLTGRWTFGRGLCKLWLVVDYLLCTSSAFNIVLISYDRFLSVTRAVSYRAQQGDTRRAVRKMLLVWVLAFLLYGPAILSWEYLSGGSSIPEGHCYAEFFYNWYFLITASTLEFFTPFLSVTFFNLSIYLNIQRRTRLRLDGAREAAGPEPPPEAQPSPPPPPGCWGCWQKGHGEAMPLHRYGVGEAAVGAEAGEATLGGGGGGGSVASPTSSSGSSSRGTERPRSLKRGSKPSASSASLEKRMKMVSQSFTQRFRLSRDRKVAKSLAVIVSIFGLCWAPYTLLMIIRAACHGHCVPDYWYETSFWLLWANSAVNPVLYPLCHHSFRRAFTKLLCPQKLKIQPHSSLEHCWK
Description: Displacement of [3H]N-alpha-methylhistamine from recombinant human histamine H3 receptor expressed in CHO-K1 cells by microbeta scintillation analysis

MAO-A [5] = target: T3, MAO-A; assay: in vitro; details: probe p-tyramine
Description: Inhibition of recombinant human MAO-A expressed in baculovirus infected BTI cells at 1 uM using p-tyramine as substrate by fluorometric assay relative to control

Acetylcholinesterase [6] = target: T2, Acetylcholinesterase; assay: Inhibition of Electric eel AChE using ATCI as substrate preincubated with enzyme for 60 mins followed by substrate addition and measured for 120 secs by spectrophotometric based Ellman's method
Mus musculus [7] = assay: (§1) Analgesic activity in formalin-induced nociception CD-1 mouse model assessed as reduction in pain behaviour by measuring less licking of formalin injected hind paw compound administered intraperitoneally prior to formalin induction and measured during early phase (0 to 5 mins after formalin injection) by formalin test; type: functional; details: CD-1, ip, time 0-5 min
Acetylcholinesterase [8] = target: Acetylcholinesterase (Homo sapiens, UniProt P22303); assay: Inhibition of recombinant human AChE using ATCI as substrate incubated for 5 mins followed by substrate addition and measured after 5 mins by spectrophotometric based Ellman's method
Acetylcholinesterase (Homo sapiens, UniProt P22303), sequence (P22303 whole entry): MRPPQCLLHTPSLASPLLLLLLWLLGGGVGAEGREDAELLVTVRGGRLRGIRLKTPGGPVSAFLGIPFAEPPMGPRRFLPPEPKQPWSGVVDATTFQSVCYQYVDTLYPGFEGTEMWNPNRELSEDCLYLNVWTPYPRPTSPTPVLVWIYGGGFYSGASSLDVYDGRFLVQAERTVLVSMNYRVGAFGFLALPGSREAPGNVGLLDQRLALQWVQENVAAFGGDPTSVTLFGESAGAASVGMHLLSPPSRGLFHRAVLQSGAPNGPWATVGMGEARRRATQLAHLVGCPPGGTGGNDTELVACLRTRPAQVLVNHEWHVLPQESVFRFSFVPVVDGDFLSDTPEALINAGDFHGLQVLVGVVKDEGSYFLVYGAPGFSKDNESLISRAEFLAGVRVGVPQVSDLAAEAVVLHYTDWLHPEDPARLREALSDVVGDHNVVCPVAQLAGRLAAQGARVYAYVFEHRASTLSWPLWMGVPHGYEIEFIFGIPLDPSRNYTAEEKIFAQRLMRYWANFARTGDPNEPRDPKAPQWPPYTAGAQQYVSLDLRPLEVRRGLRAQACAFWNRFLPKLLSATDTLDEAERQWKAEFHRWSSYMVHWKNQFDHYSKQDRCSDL

[9] = target: Cholinesterase (Equus caballus) (UniProt P81908); assay: Non-competitive inhibition of equine serum BChE using BTCI as substrate incubated for 5 mins followed by substrate addition and measured after 5 mins by spectrophotometric based Lineweaver-Burk plot analysis; type: cell-free; details: time 10.0 min
Cholinesterase (Equus caballus), sequence (P81908 whole entry): as the sequence (P81908 whole entry) above

in vitro = details: PAMPA, pH 7.4
Description: Permeability of compound in PBS buffer assessed as permeability coefficient at pH 7.4 at 200 uM incubated for 5 hrs by PAMPA based LC-MS analysis

Cholinesterase [10] = target: Cholinesterase (Homo sapiens, UniProt P06276)
Cholinesterase (Homo sapiens, UniProt P06276), sequence (P06276 whole entry): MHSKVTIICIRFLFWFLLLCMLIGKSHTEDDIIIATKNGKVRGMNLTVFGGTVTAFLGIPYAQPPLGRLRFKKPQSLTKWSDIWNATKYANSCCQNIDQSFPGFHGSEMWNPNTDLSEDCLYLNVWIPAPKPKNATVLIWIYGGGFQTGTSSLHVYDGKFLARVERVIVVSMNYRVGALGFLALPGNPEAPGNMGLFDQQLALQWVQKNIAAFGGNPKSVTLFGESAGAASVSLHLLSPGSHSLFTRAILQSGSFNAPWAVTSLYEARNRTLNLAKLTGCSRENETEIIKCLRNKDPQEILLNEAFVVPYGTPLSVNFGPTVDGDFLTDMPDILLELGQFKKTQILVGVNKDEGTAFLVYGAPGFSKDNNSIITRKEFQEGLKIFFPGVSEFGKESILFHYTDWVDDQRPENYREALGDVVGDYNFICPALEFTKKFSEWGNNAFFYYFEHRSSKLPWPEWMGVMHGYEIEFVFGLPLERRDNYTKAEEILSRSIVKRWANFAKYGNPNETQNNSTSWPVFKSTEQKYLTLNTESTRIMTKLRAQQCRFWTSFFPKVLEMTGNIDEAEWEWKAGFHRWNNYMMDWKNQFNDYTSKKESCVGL
Description: Inhibition of human BuChE by spectrophotometric based Ellman's method

Rattus norvegicus [11] = assay: Memory enhancement effect in dizocilpine-induced Wistar (Krf:WI) rat model of amnesia assessed as increase in step through latency at 1.25 to 5 mg/kg, ip measured after 30 to 45 mins by step-through passive avoidance test; type: functional, organism-based; details: dose 1.25-5 mg/kg, time 30-45 min
Mus musculus [12] = assay: as §1, with “late” for “early”, “(15” for “(0”, “30” for “5”; type: functional; details: CD-1, ip, time 15-30 min
Rattus norvegicus [13] = assay: Memory enhancement effect in dizocilpine-induced Wistar (Krf:WI) rat model of amnesia assessed as decrease in transfer latency time at 1.25 to 5 mg/kg, ip measured after 30 to 45 mins by elevated plus maze test; type: functional, organism-based; details: dose 1.25-5 mg/kg, time 30-45 min
[14] = target: Acetylcholinesterase (Electrophorus electricus) (UniProt O42275); assay: Non-competitive inhibition of Electric eel AChE using ATCI as substrate incubated for 5 mins followed by substrate addition and measured after 5 mins by spectrophotometric based Cornish-Bowden plot analysis; details: time 10.0 min
Acetylcholinesterase (Electrophorus electricus), sequence (O42275 24-633 limits assumed): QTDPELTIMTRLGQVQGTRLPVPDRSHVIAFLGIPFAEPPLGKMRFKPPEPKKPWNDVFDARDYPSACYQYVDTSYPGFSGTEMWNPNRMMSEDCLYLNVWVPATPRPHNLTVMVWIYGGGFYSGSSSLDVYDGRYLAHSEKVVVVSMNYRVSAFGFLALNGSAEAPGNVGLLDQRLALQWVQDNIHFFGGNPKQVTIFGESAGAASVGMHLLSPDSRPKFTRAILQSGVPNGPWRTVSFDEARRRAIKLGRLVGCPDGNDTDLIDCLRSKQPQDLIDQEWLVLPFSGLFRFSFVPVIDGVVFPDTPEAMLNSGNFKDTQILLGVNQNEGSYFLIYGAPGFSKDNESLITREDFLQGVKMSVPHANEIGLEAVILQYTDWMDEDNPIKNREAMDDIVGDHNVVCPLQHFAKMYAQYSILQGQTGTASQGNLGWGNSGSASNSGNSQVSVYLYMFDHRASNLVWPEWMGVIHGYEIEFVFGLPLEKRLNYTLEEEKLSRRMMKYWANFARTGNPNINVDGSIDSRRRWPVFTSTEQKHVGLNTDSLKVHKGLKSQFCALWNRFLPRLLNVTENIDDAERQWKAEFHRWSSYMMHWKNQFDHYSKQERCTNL

[15] = target: Acetylcholinesterase (Electrophorus electricus) (UniProt O42275); assay: Non-competitive inhibition of Electric eel AChE using ATCI as substrate incubated for 5 mins followed by substrate addition and measured after 5 mins by spectrophotometric based Lineweaver-Burk plot analysis; details: time 10.0 min
[16] = target: Cholinesterase (Equus caballus) (UniProt P81908); assay: Non-competitive inhibition of equine serum BChE using BTCI as substrate incubated for 5 mins followed by substrate addition and measured after 5 mins by spectrophotometric based Cornish-Bowden plot analysis; type: cell-free; details: time 10.0 min

SMILES	IC50 [1] [nM]	IC50 (Cholinesterase [2]) [nM]	IC50 (Acetylcholinesterase [3]) [nM]	inhibition at 10 µM (MAO-A [4]) [%]	Ki (Histamine H3 receptor) [nM]	inhibition at 1 µM (MAO-A [5]) [%]	other results
O=c1c2cc(Cl)ccc2oc2ccc(OCCCCCCN3CCCCC3)cc12	1820	954	620	< 50	282	8	–
O=c1c2cc(Cl)ccc2oc2ccc(OCCCCCCN3CCCCCC3)cc12	1390	545	270	< 50	238	23	–
CC1CCCN(CCCCCCOc2ccc3oc4cc(Cl)ccc4c(=O)c3c2)C1 (stereo unspecified)	1830	2040	384	< 50	1100	42	–
CC1CCN(CCCCCOc2ccc3oc4cc(Cl)ccc4c(=O)c3c2)CC1	1540	1610	421	< 50	448	22	–
CC1CCCN(CCCCCCOc2ccc3oc4ccc(Cl)cc4c(=O)c3c2)C1 (stereo unspecified)	717	1470	307	< 50	436	28	–
CC1CCN(CCCCCCOc2ccc3oc4ccc(Cl)cc4c(=O)c3c2)CC1	720	899	525	< 50	465	28	–
CC1CCCN(CCCCCCOc2ccc3oc4ccccc4c(=O)c3c2)C1 (stereo unspecified)	1550	1150	387	< 50	100	4	–
O=c1c2ccc(Cl)cc2oc2ccc(OCCCCCCN3CCCCC3)cc12	946	1980	378	< 50	203	8	–
CC1CCCN(CCCCCOc2ccc3oc4ccccc4c(=O)c3c2)C1 (stereo unspecified)	4200	978	342	< 50	156	1	–
CC1CCN(CCCCCOc2ccc3oc4ccccc4c(=O)c3c2)CC1	1860	1090	697	< 50	110	1	–
O=c1c2ccc(Cl)cc2oc2ccc(OCCCCCN3CCCCCC3)cc12	2110	1280	314	< 50	86	2	–
O=c1c2ccccc2oc2cc(OCCCCCN3CCCCC3)cc(O)c12	–	–	–	–	–	–	IC50 (Acetylcholinesterase [6]): 460 nM
O=c1c2ccccc2oc2ccc(OCCCCCCN3CCCCC3)cc12	939	2000	358	< 50	1060	4	–
O=c1c2cc(Cl)ccc2oc2ccc(OCCCCCN3CCCCC3)cc12	756	983	238	< 50	150	5	–
CC1CCN(CCCCCCOc2ccc3oc4cc(Cl)ccc4c(=O)c3c2)CC1	1640	1510	561	< 50	520	37	–
Clc1ccc(CCCOCCCN2CCCCC2)cc1 [PITOLISANT]	–	–	–	–	–	9	–
CC1CCN(CCCCCOc2ccc3oc4ccc(Cl)cc4c(=O)c3c2)CC1	673	1100	386	< 50	140	5	–
C#CCN(C)CCCOc1ccc(Cl)cc1Cl [CLORGILINE]	–	–	–	–	–	1.8	–
CC1CCCN(CCCCCOc2ccc3oc4ccc(Cl)cc4c(=O)c3c2)C1 (stereo unspecified)	665	685	691	< 50	148	2	–
O=c1c2ccccc2oc2ccc(OCCCCCN3CCCCC3)cc12	1500	2540	622	< 50	172	6	–
O=c1c2ccc(Cl)cc2oc2ccc(OCCCCCCN3CCCCCC3)cc12	975	1240	235	< 50	602	5	–
CC1CCN(CCCCCCOc2ccc3oc4ccccc4c(=O)c3c2)CC1	856	965	406	< 50	97	6	–
CC1CCCN(CCCCCOc2ccc3oc4cc(Cl)ccc4c(=O)c3c2)C1 (stereo unspecified)	1980	2830	353	< 50	56	11	–
O=c1c2cc(Cl)ccc2oc2ccc(OCCCCCN3CCCCCC3)cc12	897	394	136	< 50	100	12	ED50 (Mus musculus [7]): 27.3 mg/kg; IC50 (Acetylcholinesterase [8]): 120 nM; inhibition [9]: Active; Papp at 5 h, 200 µM (in vitro): 2.2 ×10⁻⁶ cm/s; IC50 (Cholinesterase [10]): 1590 nM; Activity (Rattus norvegicus [11]): inactive; ED50 (Mus musculus [12]): 22.5 mg/kg; Activity (Rattus norvegicus [13]): inactive; inhibition [14]: Active; inhibition [15]: Active; inhibition [16]: Active
O=c1c2ccccc2oc2ccc(OCCCCCCN3CCCCCC3)cc12	385	605	308	< 50	496	3	–
